In patent US9684238B2, “Fluorene-type compound, photopolymerization initiator comprising said fluorene-type compound, and photosensitive composition containing said photopolymerization initiator” (TOKYO OHKA KOGYO CO., LTD., priority 2012, dated 2017):

Tests used:
[1] = Average transmittance of composition; assay type: physicochemical; settings: photosensitive composition, quartz cell, optical path length 1 cm
Procedure: The average transmittance (%) of each of the photosensitive resin compositions obtained in Examples 1 to 9, Examples 2-1 to 2-10, and Comparative Examples 1 and 2 in the range of from 400 nm to 700 nm was measured with a spectrophotometer (manufactured by Hitachi High-Technologies Corporation, trade name: “U-3900H”, quartz cell, optical path length; 1 cm).

[2] = Solubility in PGME, PGMEA and ethyl lactate; assay type: physicochemical; settings: for Solubility Ethyl lactate: in 100 parts by weight of ethyl lactate; for Solubility Ethyl lactate / Solubility PGMEA / Solubility PGME: room temperature; for Solubility PGMEA: in 100 parts by weight of propylene glycol monomethyl ether acetate; for Solubility PGME: in 100 parts by weight of propylene glycol monomethyl ether
[3] = Evaluation 3: 20-μm pattern line width of black photosensitive composition; settings: black composition (carbon black, cardo resin), initiator 0.4 mmol
Summary of the method: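 Composition spin-coated on glass to 1.0 μm dry thickness, dried 90 °C for 10 min, exposed at 10–80 mJ/cm^2 via high-pressure mercury lamp through 20 μm negative mask, developed in 0.1 wt % TMAH, rinsed. Line width of remaining cured film measured; larger width means higher sensitivity.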

[4] = Evaluation 1: 20-μm pattern line width of transparent photosensitive composition; settings: transparent composition, initiator 0.4 mmol
[5] = as above; settings: initiator 0.4 mmol, exposure energy quantity 30 mJ/cm^2
[6] = Decomposition point by thermal analysis (TG-DTA); assay type: physicochemical; settings: 5.0 mg
Procedure: The compounds 1, 2, 4, 6, 8, 9, 11, 12, 13, 15, 16, D-1, D-3, D-4, D-7, D-8, D-9, D-12, D-14, D-15, D-20, C-1, and C-2 were each subjected to measurement with a thermal analysis apparatus (TG-DTA) (manufactured by Rigaku Corporation, trade name: “Thermo Plus EVO TG 8120”) by using 5.0 mg thereof.

[7] = Transmittance of transparent cured film; assay type: physicochemical; settings: for Average transmittance (700 nm to 400 nm) Transparent cured film / Transmittance (400 nm) Transparent cured film: cured at exposure energy quantity 80 mJ/cm^2
Summary of the method: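 Films cured at 80 mJ/cm^2 exposure, otherwise prepared as in the earlier film evaluation. Spectrophotometer read in quartz cell, 1 cm path, giving transmittance (%) at 400 nm and average transmittance (%) over 400–700 nm.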

[8] = Absorption coefficient (absorbance of 0.001% solution in tetrahydrofuran); assay type: physicochemical; settings: for Λ max (absorption maximum wavelength): 0.001% (wt/vol) in tetrahydrofuran, from 280 nm to 400 nm; for Absorption coefficient at 365 nm / Absorption coefficient at Λ max: 0.001% (wt/vol) solution in tetrahydrofuran
Summary of the method: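 Absorbance of a 0.001% (wt/vol) solution in tetrahydrofuran recorded by spectrophotometer. Absorption maximum wavelength (λmax) taken from the spectrum within 280–400 nm.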

[9] = photopolymerization initiator containing the compound
[10] = exposure energy quantity 5 mJ/cm^2
[11] = exposure energy quantity 10 mJ/cm^2
[12] = exposure energy quantity 20 mJ/cm^2
[13] = exposure energy quantity 40 mJ/cm^2

Average transmittance (700 nm to 400 nm) Solution [1]	Decomposition point [6]	Average transmittance (700 nm to 400 nm) Transparent cured film [7]	Transmittance (400 nm) Transparent cured film [7]	Λ max (absorption maximum wavelength) [8]	Absorption coefficient at 365 nm [8]	Absorption coefficient at Λ max [8]	Compound	Solubility Ethyl lactate [2]	Solubility PGMEA [2]	Solubility PGME [2]	20-μm pattern line width ([3]; 10 mJ/cm^2)	20-μm pattern line width ([3]; 20 mJ/cm^2)	20-μm pattern line width ([3]; 40 mJ/cm^2)	20-μm pattern line width ([3]; 60 mJ/cm^2)	20-μm pattern line width ([3]; 80 mJ/cm^2)	20-μm pattern line width [4, 10]	20-μm pattern line width [4, 11]	20-μm pattern line width [4, 12]	20-μm pattern line width [4, 13]	20-μm pattern line width [5]	further results
87.0%	182.6 °C	100.0%	98.0%	335.5 nm	10.9 mL/mg/cm	52.1 mL/mg/cm	CCCC1(CCC)c2cc(C(=O)c3ccc([N+](=O)[O-])cc3)ccc2-c2ccc(C(=NOC(C)=O)C(C)C)cc21 (mixture of isomers) [Compound D-8]	A (10 Parts by weight or more of the photopolymerization initiator is dissolved.)	A (10 Parts by weight or more of the photopolymerization initiator is dissolved.)	A (10 Parts by weight or more of the photopolymerization initiator is dissolved.)	18.7	18.7	20.0	20.7	21.1	19.1	19.7	20.0	21.9	21.3	solubility (in words) [2, 9]: additionally excellent solubility; transparency of photosensitive composition and formed product (in words) [7, 9]: additionally excellent transparency
86.0%	250.3 °C	99.3%	96.1%	341.5 nm	21.9 mL/mg/cm	62.9 mL/mg/cm	CCCC1(CCC)c2cc(C(=O)c3ccc([N+](=O)[O-])cc3)ccc2-c2ccc(C(C)=NOC(C)=O)cc21 [Compound D-7]	D (Less than 2 parts by weight of the photopolymerization initiator is dissolved.)	D (Less than 2 parts by weight of the photopolymerization initiator is dissolved.)	D (Less than 2 parts by weight of the photopolymerization initiator is dissolved.)						19.3	20.2	20.8	22.6	21.4	
94.2%	216.4 °C	99.8%	98.9%	298.5 nm	4.4 mL/mg/cm	94.4 mL/mg/cm	CCn1c2ccc(C(=O)c3ccccc3C)cc2c2cc(/C(C)=N/OC(C)=O)ccc21 [Compound C-1, reference compound]	C (An amount in the range of from 2 parts by weight or more to less than 5 parts by weight of the photopolymerization initiator is dissolved.)	B (An amount in the range of from 5 parts by weight or more to less than 10 parts by weight of the photopolymerization initiator is dissolved.)	B (An amount in the range of from 5 parts by weight or more to less than 10 parts by weight of the photopolymerization initiator is dissolved.)	18.5	19.0	20.0	20.9	21.2			20.4	22.1		20-μm pattern line width ([4]; exposure energy quantity 60 mJ/cm^2): 22.3; 20-μm pattern line width ([4]; exposure energy quantity 80 mJ/cm^2): 22.4
